Data taken from PubChem BioAssay AID1963851 (Molecular Pharmacology Branch, DTP, NCI, 2024).

Test system: 188146-221-R-J1-PDC complex spheroid viability
Assay: Anticancer human tumor 188146-221-R-J1-PDC patient-derived colon adenocarcinoma cell line growth inhibition [POLQ]
Conditions: for IC50: curve of first compound; for viability, T/C: stronger effect = lower value
Method in brief: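 Complex spheroid viability model combining PDC tumour cells with endothelial (HUVEC) and MSC stromal cells. Novobiocin, ART-558 or RP6685 were tested singly and in combination with standard and investigational anticancer drugs. Each was titrated in half-log steps from near clinical Cmax, or from 10 microM where Cmax was unknown.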

[1] = second compound 0.0316 µM, first compound 0.0316 µM
[2] = second compound 0.0316 µM, first compound 0.1 µM
[3] = second compound 0.1 µM, first compound 0.0316 µM
[4] = second compound 0.1 µM, first compound 0.1 µM
[5] = second compound 0.316 µM, first compound 0.0316 µM
[6] = second compound 0.316 µM, first compound 0.1 µM
[7] = second compound 1 µM, first compound 0.0316 µM
[8] = second compound 1 µM, first compound 0.1 µM
[9] = second compound 3.16 µM, first compound 0.0316 µM
[10] = second compound 3.16 µM, first compound 0.1 µM
[11] = second compound 10 µM, first compound 0.0316 µM
[12] = second compound 10 µM, first compound 0.1 µM
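Note: spheroids exposed to compounds for seven days.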
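Throughout, for viability, T/C: 100% = DMSO vehicle control viability.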

Q: `CC[C@@]1(O)C(=O)OCc2c1cc1n(c2=O)Cc2cc3c(CN(C)C)c(O)ccc3nc2-1` + Cc1cccc(N(C)C(=O)C2C(O)CCN2c2nc(C)cc(C(F)(F)F)c2C#N)c1 was tested. Which IC50 (second compound 0.0316 µM) did it give?
A: > 100 nM

Q: What about the IC50 (second compound 0.1 µM) of the same molecule?
A: > 100 nM

Q: What about the IC50 (second compound 0.316 µM) of the same molecule?
A: > 100 nM

Q: What about the IC50 (second compound 1 µM) of the same molecule?
A: > 100 nM

Q: What about the IC50 (second compound 3.16 µM) of the same molecule?
A: > 100 nM

Q: What about the IC50 (second compound 10 µM) of the same molecule?
A: > 100 nM

Q: What about the viability, T/C (second compound 0.0316 µM, first compound 0.000316 µM) of the same molecule?
A: 110%

Q: What about the viability, T/C (second compound 0.0316 µM, first compound 0.001 µM) of the same molecule?
A: 95.1%

Q: What about the viability, T/C (second compound 0.0316 µM, first compound 0.00316 µM) of the same molecule?
A: 106%

Q: And the viability, T/C (second compound 0.0316 µM, first compound 0.01 µM)?
A: 89.6%

Q: What about the viability, T/C [1] of the same molecule?
A: 98.1%

Q: And the viability, T/C [2]?
A: 68.7%

Q: What about the viability, T/C (second compound 0.1 µM, first compound 0.000316 µM) of the same molecule?
A: 112%

Q: What about the viability, T/C (second compound 0.1 µM, first compound 0.001 µM) of the same molecule?
A: 99.6%

Q: And the viability, T/C (second compound 0.1 µM, first compound 0.00316 µM)?
A: 96%

Q: What about the viability, T/C (second compound 0.1 µM, first compound 0.01 µM) of the same molecule?
A: 107%

Q: What about the viability, T/C [3] of the same molecule?
A: 99.1%

Q: What about the viability, T/C [4] of the same molecule?
A: 77.5%

Q: What about the viability, T/C (second compound 0.316 µM, first compound 0.000316 µM) of the same molecule?
A: 109%

Q: And the viability, T/C (second compound 0.316 µM, first compound 0.001 µM)?
A: 91.2%

Q: What about the viability, T/C (second compound 0.316 µM, first compound 0.00316 µM) of the same molecule?
A: 92.4%

Q: And the viability, T/C (second compound 0.316 µM, first compound 0.01 µM)?
A: 87%

Q: And the viability, T/C [5]?
A: 96.5%

Q: What about the viability, T/C [6] of the same molecule?
A: 71.3%

Q: What about the viability, T/C (second compound 1 µM, first compound 0.000316 µM) of the same molecule?
A: 93.4%

Q: And the viability, T/C (second compound 1 µM, first compound 0.001 µM)?
A: 99%

Q: And the viability, T/C (second compound 1 µM, first compound 0.00316 µM)?
A: 101%

Q: And the viability, T/C (second compound 1 µM, first compound 0.01 µM)?
A: 104%

Q: What about the viability, T/C [7] of the same molecule?
A: 97.9%

Q: And the viability, T/C [8]?
A: 75.9%

Q: And the viability, T/C (second compound 3.16 µM, first compound 0.000316 µM)?
A: 97.2%

Q: And the viability, T/C (second compound 3.16 µM, first compound 0.001 µM)?
A: 100%

Q: And the viability, T/C (second compound 3.16 µM, first compound 0.00316 µM)?
A: 94.6%

Q: What about the viability, T/C (second compound 3.16 µM, first compound 0.01 µM) of the same molecule?
A: 91.8%

Q: And the viability, T/C [9]?
A: 92.2%

Q: And the viability, T/C [10]?
A: 81%

Q: What about the viability, T/C (second compound 10 µM, first compound 0.000316 µM) of the same molecule?
A: 100%

Q: And the viability, T/C (second compound 10 µM, first compound 0.001 µM)?
A: 99.6%

Q: And the viability, T/C (second compound 10 µM, first compound 0.00316 µM)?
A: 92.4%

Q: And the viability, T/C (second compound 10 µM, first compound 0.01 µM)?
A: 84.2%

Q: And the viability, T/C [11]?
A: 78%

Q: What about the viability, T/C [12] of the same molecule?
A: 54.6%

Q: For `Nc1ccn(C2OC(CO)C(O)C2(F)F)c(=O)n1` (centres undefined) + Cc1cccc(N(C)C(=O)C2C(O)CCN2c2nc(C)cc(C(F)(F)F)c2C#N)c1, which IC50 (second compound 0.0316 µM) is on record?
A: < 31.6 nM

Q: What about the IC50 (second compound 0.1 µM) of the same molecule?
A: < 31.6 nM

Q: And the IC50 (second compound 0.316 µM)?
A: < 31.6 nM

Q: What about the IC50 (second compound 1 µM) of the same molecule?
A: < 31.6 nM

Q: What about the IC50 (second compound 3.16 µM) of the same molecule?
A: < 31.6 nM

Q: What about the IC50 (second compound 10 µM) of the same molecule?
A: < 31.6 nM

Q: What about the viability, T/C [1] of the same molecule?
A: 35.5%

Q: And the viability, T/C [2]?
A: 20.8%

Q: And the viability, T/C (second compound 0.0316 µM, first compound 0.316 µM)?
A: 14.7%

Q: What about the viability, T/C (second compound 0.0316 µM, first compound 1 µM) of the same molecule?
A: 18.1%

Q: And the viability, T/C (second compound 0.0316 µM, first compound 3.16 µM)?
A: 17.1%

Q: And the viability, T/C (second compound 0.0316 µM, first compound 10 µM)?
A: 10.2%

Q: What about the viability, T/C [3] of the same molecule?
A: 41%

Q: And the viability, T/C [4]?
A: 23.8%

Q: What about the viability, T/C (second compound 0.1 µM, first compound 0.316 µM) of the same molecule?
A: 15.2%

Q: And the viability, T/C (second compound 0.1 µM, first compound 1 µM)?
A: 15.9%

Q: What about the viability, T/C (second compound 0.1 µM, first compound 3.16 µM) of the same molecule?
A: 14.9%

Q: And the viability, T/C (second compound 0.1 µM, first compound 10 µM)?
A: 11.3%

Q: And the viability, T/C [5]?
A: 31.9%

Q: And the viability, T/C [6]?
A: 20.5%

Q: And the viability, T/C (second compound 0.316 µM, first compound 0.316 µM)?
A: 14.2%

Q: And the viability, T/C (second compound 0.316 µM, first compound 1 µM)?
A: 15%

Q: And the viability, T/C (second compound 0.316 µM, first compound 3.16 µM)?
A: 16.9%

Q: And the viability, T/C (second compound 0.316 µM, first compound 10 µM)?
A: 14.1%

Q: And the viability, T/C [7]?
A: 28.1%

Q: And the viability, T/C [8]?
A: 25.9%

Q: What about the viability, T/C (second compound 1 µM, first compound 0.316 µM) of the same molecule?
A: 20.2%

Q: And the viability, T/C (second compound 1 µM, first compound 1 µM)?
A: 16.2%

Q: And the viability, T/C (second compound 1 µM, first compound 3.16 µM)?
A: 14.3%

Q: What about the viability, T/C (second compound 1 µM, first compound 10 µM) of the same molecule?
A: 10.8%

Q: And the viability, T/C [9]?
A: 24.6%

Q: What about the viability, T/C [10] of the same molecule?
A: 22.5%

Q: And the viability, T/C (second compound 3.16 µM, first compound 0.316 µM)?
A: 15.8%

Q: And the viability, T/C (second compound 3.16 µM, first compound 1 µM)?
A: 16.5%

Q: And the viability, T/C (second compound 3.16 µM, first compound 3.16 µM)?
A: 17.8%

Q: What about the viability, T/C (second compound 3.16 µM, first compound 10 µM) of the same molecule?
A: 11.1%

Q: And the viability, T/C [11]?
A: 31.1%

Q: And the viability, T/C [12]?
A: 19.1%

Q: What about the viability, T/C (second compound 10 µM, first compound 0.316 µM) of the same molecule?
A: 20.3%

Q: What about the viability, T/C (second compound 10 µM, first compound 1 µM) of the same molecule?
A: 22%

Q: And the viability, T/C (second compound 10 µM, first compound 3.16 µM)?
A: 20.5%

Q: What about the viability, T/C (second compound 10 µM, first compound 10 µM) of the same molecule?
A: 11.4%
